Tests used:
[1] = system: LPS-induced NO production in RAW264.7 cells; experiment: Inhibition of LPS-induced NO production (Griess reagent); type: cell-based, mouse; details: for IC50: Mus musculus, 1 h pretreatment, then LPS 24 h, mean ± SD (n = 3); for LPS-induced NO release: LPS-stimulated, result in words
Procedure: NO is an important inflammatory mediator and is overproduced and secreted out of mouse macrophages in response to bacterial lipopolysaccharide. To evaluate the anti-inflammatory activity of hesperetin derivatives, the secretion level of NO was detected in the medium of RAW264.7 cells after LPS stimulated with Griess reagent. Before the cells were treated with LPS (1 μg/mL) for 24 h, pretreatment with the compounds for 1 hour. […] All hesperetin derivatives could decrease the release of NO induced by LPS. […] While extended the length of the amide side chain and the inhibitory activities increased (4d > 4c > 4a; 4e > 4b). […] On the other hand, the cavity was medium-sized, large enough to accommodate cyclopentyl and propyl groups, but not enough to accommodate cyclohexyl and butyl ones (4a < 4b < 4d > 4f; 4k > 4l).
Nitrite levels were determined using the Griess method for NO has a short half-life and is oxidized to stable nitrite. RAW 264.7 cells were plated at a density of 2 × 10^5 per well in a 24-well culture plate and incubated in a 37 °C humidified incubator (5% CO2). After overnight Cultured, discarded the supernatant, added pre-configured compounds of different concentrations to the 24-well plate, and added the same one-thousandth of the DMSO solvent as the control to the experimental group for 1 h. Then LPS was added to experimental and model groups at a concentration of […] for 24 h compared to vehicle control. Following treatment, media was collected and centrifuged at 2000 rpm for 5 min to remove cellular debris. The medium from treated cells was removed and placed into a 96-well plate (50 µL per well) and was measured in culture supernatant using Griess reagent at 540 nm. The IC50 values of compounds were calculated by SPSS23.

[2] = system: LPS-induced NO production in RAW264.7 cells; experiment: Inhibition of LPS-induced NO production (Griess reagent); type: cell-based; details: Mus musculus, 10 μM compound, 1 h pretreatment, then LPS (1 μg/mL) 24 h, mean ± SD (n = 3)
TNF-α = TNF-α level in medium of LPS-induced RAW264.7 cells (ELISA); type: cell-based, mouse; details: 10 μM compound (Figure 2A-C)
Excerpt: (§1) When inflammation occurs, LPS-activated macrophages produce a variety of inflammatory cytokines, including TNF-α, interleukins (ILs), and nitric oxide (NO), which show a host shielding effect and also accelerate the occurrence of the inflammatory response during inflammatory situations. To evaluate the anti-inflammatory activity of hesperetin derivatives, the levels of TNF-α, IL-6 and IL-1β in the medium of LPS-induced macrophage cells were detected by enzyme linked immunosorbent assay (ELISA). […] Later, we will select one of them as lead compound and modify the structure at the 3’-OH, 5-OH and 4-carbonyl positions. […] Compounds 4d (MW = 401) and 4k (MW = 427) have similar structures and should have the same mechanism. Therefore, compound 4d with lower molecular weight was selected to further explore the mechanism(s) of the anti-inflammatory effect.
(§2) RAW264.7 cells (2 × 10^5 cells/well) were cultured in 24-well plate and pretreated with 10 μM of compounds for 1 h. And then stimulated with LPS, […], for 24 h. The cell culture supernatant were collected and the levels of TNF-α, IL-6 and IL-1β were determined using the ELISA kit (Elabscience, Wuhan, China). The optical density (OD) was measured at 540 nm. The results were analyzed using Origin Pro 8 (OriginLab, Northampton, MA, USA).

IL-6 = IL-6 level in medium of LPS-induced RAW264.7 cells (ELISA); type: cell-based, mouse; details: 10 μM compound (Figure 2A-C)
Excerpt: as §1, §2

IL-1β = IL-1β level in medium of LPS-induced RAW264.7 cells (ELISA); type: cell-based, mouse; details: 10 μM compound (Figure 2A-C)
Excerpt: as §1, §2

| SMILES | IC50 [1] [µM] | melting point [°C] | inhibition at 10 µM [2] [%] | LPS-induced NO release [1] | inhibitory effect on TNF-α production (TNF-α) | inhibitory effect on IL-6 production (IL-6) | inhibitory effect on IL-1β production (IL-1β) |
| --- | --- | --- | --- | --- | --- | --- | --- |
| CCNC(=O)COc1cc(O)c2c(c1)O[C@H](c1ccc(OC)c(O)c1)CC2=O [Compound 4b, 7-O-(2-(Ethylamino)-2-oxoethyl)hesperetin] | 29.9 ± 3.4 | 171.2 to 173.6 | 21.5 ± 1.29 | – | – | – | – |
| COc1ccc([C@@H]2CC(=O)c3c(O)cc(OCC(=O)NC4CC4)cc3O2)cc1O [Compound 4j, 7-O-(2-(Cyclopropylamino)-2-oxoethyl)hesperetin] | 41.7 ± 2.79 | 190.8 to 193.1 | 9.57 ± 5.53 | – | – | – | – |
| COc1ccc([C@@H]2CC(=O)c3c(O)cc(OCC(=O)N4CCCCC4)cc3O2)cc1O [Compound 6a, 7-O-(2-(piperidin-1-yl)-2-oxoethyl)hesperetin] | 23.4 ± 1.64 | 165.4 to 167.9 | 30.2 ± 4.67 | significantly alleviated the increase of LPS-induced NO release | – | – | – |
| COc1ccc([C@@H]2CC(=O)c3c(O)cc(OCC(=O)N4CCCCC4CO)cc3O2)cc1O (stereo partly shown) [Compound 6c, 7-O-(2-(2-(Hydroxymethyl)piperidin-1-yl)-2-oxoethyl)hesperetin] | 40.6 ± 5.56 | 123.2 to 125.8 | 9.1 ± 3.67 | – | – | – | – |
| COc1ccc([C@@H]2CC(=O)c3c(O)cc(OCC(=O)NC4CCCCC4)cc3O2)cc1O [Compound 4l, 7-O-(2-(Cyclohexylamino)-2-oxoethyl)hesperetin] | 33.3 ± 3.3 | 181.9 to 184.1 | 20.3 ± 2 | – | – | – | – |
| COc1ccc([C@@H]2CC(=O)c3c(O)cc(OCC(=O)NC(C)(C)C)cc3O2)cc1O [Compound 4h, 7-O-(2-(tert-Butylamino)-2-oxoethyl)hesperetin] | 42 ± 6.15 | 140.5 to 142.4 | 17.5 ± 1.33 | – | – | – | – |
| Cc1ccc(-c2cc(C(F)(F)F)nn2-c2ccc(S(N)(=O)=O)cc2)cc1 [Cel, celecoxib, reference compound] | 26.4 ± 0.46 | – | 14.5 ± 3.61 | – | – | – | – |
| CCCCNC(=O)COc1cc(O)c2c(c1)O[C@H](c1ccc(OC)c(O)c1)CC2=O [Compound 4f, 7-O-(2-(Butylamino)-2-oxoethyl)hesperetin] | 29.7 ± 3.06 | 136.9 to 138.4 | 18 ± 0.82 | – | – | – | – |
| COc1ccc([C@@H]2CC(=O)c3c(O)cc(OCC(=O)NCC(C)C)cc3O2)cc1O [Compound 4g, 7-O-(2-(Isobutylamino)-2-oxoethyl)hesperetin] | 24.59 ± 0.22 | 136.9 to 139.4 | 23.5 ± 0.74 | significantly alleviated the increase of LPS-induced NO release | – | – | – |
| COc1ccc([C@@H]2CC(=O)c3c(O)cc(OCC(=O)N4CCOCC4)cc3O2)cc1O [Compound 6f, 7-O-(2-Morpholino-2-oxoethyl)hesperetin] | 32.6 ± 1.51 | 188.7 to 189.3 | 21 ± 0.31 | – | – | – | – |
| COc1ccc([C@@H]2CC(=O)c3c(O)cc(OCC(=O)NCCN(C)C)cc3O2)cc1O [Compound 7b, 7-O-(2-((2-(Dimethylamino)ethyl)amino)-2-oxoethyl)hesperetin] | 92.5 ± 33.7 | 137.1 to 139.4 | 12.4 ± 0.67 | – | – | – | – |
| CCN1CCN(C(=O)COc2cc(O)c3c(c2)O[C@H](c2ccc(OC)c(O)c2)CC3=O)CC1 [Compound 6e, 7-O-(2-(4-Ethylpiperazin-1-yl)-2-oxoethyl)hesperetin] | – | 160.7 to 162.9 | – | – | – | – | – |
| COc1ccc([C@@H]2CC(=O)c3c(O)cc(OCC(=O)N4CCCC(CO)C4)cc3O2)cc1O (stereo partly shown) [Compound 6b, 7-O-(2-(3-(Hydroxymethyl)piperidin-1-yl)-2-oxoethyl)hesperetin] | 31.1 ± 2.93 | 168.6 to 171.8 | 19.3 ± 1.94 | – | – | – | – |
| CNC(=O)COc1cc(O)c2c(c1)O[C@H](c1ccc(OC)c(O)c1)CC2=O [Compound 4a, 7-O-(2-(Methylamino)-2-oxoethyl)hesperetin] | 38.5 ± 2 | 179.8 to 182.7 | 16 ± 0.06 | – | – | – | – |
| COc1ccc([C@@H]2CC(=O)c3c(O)cc(OCC(=O)N4CCN(C)CC4)cc3O2)cc1O [Compound 6d, 7-O-(2-(4-Methylpiperazin-1-yl)-2-oxoethyl)hesperetin] | – | 167.3 to 170.1 | – | – | – | – | – |
| COc1ccc2c(c1)c(CC(=O)O)c(C)n2C(=O)c1ccc(Cl)cc1 [Ind, indomethacin, reference compound] | 35.3 ± 8.07 | – | 12.9 ± 3.09 | – | – | – | – |
| COc1ccc([C@@H]2CC(=O)c3c(O)cc(OCC(=O)N(C)C)cc3O2)cc1O [Compound 4c, 7-O-(2-(Dimethylamino)-2-oxoethyl)hesperetin] | 32.5 ± 2.46 | 164.1 to 165.8 | 13.5 ± 1.63 | – | – | – | – |
| COc1ccc([C@@H]2CC(=O)c3c(O)cc(OCC(=O)NCCN4CCOCC4)cc3O2)cc1O [Compound 7c, 7-O-(2-((2-Mmorpholinoethyl)amino)-2-oxoethyl) hesperetin] | 42.4 ± 2.06 | 160.7 to 162.9 | 18.4 ± 4.55 | – | – | – | – |
| COc1ccc([C@@H]2CC(=O)c3c(O)cc(OCC(=O)NC(C)C)cc3O2)cc1O [Compound 4e, 7-O-(2-(Isopropylamino)-2-oxoethyl)hesperetin] | 26.1 ± 1.21 | 157.6 to 160.4 | 27.1 ± 5.88 | significantly alleviated the increase of LPS-induced NO release | greater inhibitory effects than indomethacin (Ind) and celecoxib (Cel) | greater inhibitory effects than indomethacin (Ind) and celecoxib (Cel) | greater inhibitory effects than indomethacin (Ind) and celecoxib (Cel) |
| COc1ccc([C@@H]2CC(=O)c3c(O)cc(OCC(=O)N4CCCC4)cc3O2)cc1O [Compound 5a, 7-O-(2-(Pyrrolidin-1-yl)-2-oxoethyl)hesperetin] | 36.2 ± 5.83 | 127.1 to 130.5 | 18.9 ± 4.02 | – | – | – | – |
| COc1ccc([C@@H]2CC(=O)c3c(O)cc(OCC(=O)NCCO)cc3O2)cc1O [Compound 7a, 7-O-(2-((2-Hydroxyethyl)amino)-2-oxoethyl)hesperetin] | 28.4 ± 5.33 | 183.8 to 185.7 | 15 ± 1.99 | – | – | – | – |
| CCN(CC)C(=O)COc1cc(O)c2c(c1)O[C@H](c1ccc(OC)c(O)c1)CC2=O [Compound 4i, 7-O-(2-(Diethylamino)-2-oxoethyl)hesperetin] | 30.5 ± 1.66 | 146.3 to 147.8 | 17.5 ± 2.33 | – | – | – | – |
| COc1ccc([C@@H]2CC(=O)c3c(O)cc(OCC(=O)N4CCSC4)cc3O2)cc1O [Compound 5b, 7-O-(2-(Thiazolidin-3-yl)-2-oxoethyl)hesperetin] | 30 ± 0.43 | 152.4 to 154.7 | 22.7 ± 5.71 | – | – | – | – |
| COc1ccc([C@@H]2CC(=O)c3c(O)cc(OCC(=O)NC4CCCC4)cc3O2)cc1O [Compound 4k, 7-O-(2-(Cyclopentylamino)-2-oxoethyl)hesperetin] | 16.6 ± 0.85 | 187.5 to 190 | 40.9 ± 0.64 | significantly alleviated the increase of LPS-induced NO release | greater inhibitory effects than indomethacin (Ind) and celecoxib (Cel) | greater inhibitory effects than indomethacin (Ind) and celecoxib (Cel) | greater inhibitory effects than indomethacin (Ind) and celecoxib (Cel) |
